Laboratory results reported in publication PMC12566971, “Polyprenylated Acylphloroglucinols from Hypericum rochelii and Hypericum olympicum—Cytotoxic Effects on Non-Tumorigenic Cell Lines and Antibacterial Potential” (Pharmaceuticals, 2025).
Converted amounts (≈) assume the structure as drawn. “And” between values parts separate entries of the source, which are not always exact repeats. Equal values may be shown once. Read-outs that look alike come from different tables or passages of the source.

Key:
[1] = system: Methicillin-Resistant S. aureus (MRSA); conditions: ref [4],[29]; cited from earlier work
[2] = system: icaD gene in MRSA; experiment: Real-time PCR, relative gene expression; assay type: cell-based, Staphylococcus aureus; conditions: control = 1
Method: (§1) The preparation of the samples for the RNA isolation was carried out as for the biofilm assay. RNA from the treated samples and the untreated positive MRSA control was isolated with the help of the Environmental DNA & RNA Purification Kit (E3572, EURx Ltd., Gdańsk, Poland). […] A total of 50 µL lysozyme (20 mg/mL) from chicken egg white (L6876, Merck Sigma-Aldrich) and 10 µL lysostaphin (L4402, Merck Sigma-Aldrich) from Staphylococcus staphylolyticus (200 U/mL) were added per sample. […] The samples, being bacterial, were subjected to cDNA synthesis using random hexamer primers and reverse transcriptase enzymes. The obtained cDNA samples were stored at −80 °C and used for real-time PCR.
(§2) For normalization of the data, the rho gene was used as a housekeeping gene.

[3] = system: icaA gene in MRSA; experiment: Real-time PCR, relative gene expression; assay type: cell-based, Staphylococcus aureus; conditions: control = 1
Method: as §1, §2

[4] = system: Methicillin-Resistant S. aureus (MRSA); experiment: MIC and MBC evaluation (broth microdilution, agar plate assay); assay type: cell-based, Staphylococcus aureus
Method: The MIC and MBC assessment on the pathogenic bacteria and the candidate probiotic lactic acid bacteria was carried out by the broth microdilution assay (BMD) and the agar plate assay, respectively, as described in [4]. The metabolic (dehydrogenase) activity of the lactic acid bacteria was assessed as described in [4].
P. aeruginosa PAO1 ATCC 15692 was purchased from the American Type Cell Culture Collection (ATCC, Manassas, VA, USA). S. mutans DSM 20523 was bought from the German Collection of Microorganisms and Cell Cultures (DSMZ GmbH, Braunschweig, Germany). All other bacteria and strains were purchased as described in [4].

[5] = system: Staphylococcus aureus; conditions: ref [4],[29]; cited from earlier work
[6] = system: MRSA biofilm; conditions: assessed and published previously, ref [29], cited from earlier work
[7] = system: Streptococcus pyogenes; conditions: ref [4],[29]; cited from earlier work
[8] = system: S. aureus biofilm; experiment: Biofilm assay; assay type: cell-based, Staphylococcus aureus
Method: The biofilm assay was performed according to the protocol of Stepanović [138], as already described.

[9] = system: CCL-1; experiment: MTT assay for cytotoxicity; assay type: cell-based, murine
Method: The MTT assay was performed according to Annex C, ISO 10993-5 [56] as in [116]. The panel of non-tumorigenic cell lines consisted of one murine (CCL-1 fibroblasts, which are recommended as a standard for cytotoxicity evaluation in Annex C of ISO 10993-5 [56]) and four human cell lines—HaCaT (immortalized epidermal keratinocytes), HGF (gingival fibroblasts), HEK-293 (embryonic cells from kidney epithelium), and HEPG2 (hepatoblastoma). Although technically a cancer cell line, HEPG2 is non-tumorigenic and retains many hepatocyte-related features in its proteome and a high degree of morphological and functional differentiation, also being a stage one hepatoblastoma.
CCL-1 was purchased from ATCC and HaCaT and HGF were bought from CLS Cell Lines Service (GmbH, Eppelheim, Germany). HEK-293 and HEPG2 were obtained from DSMZ. The cell culture medium for HaCaT and HEPG2 was Dulbecco’s Modified Eagle Medium (DMEM) with 4.5 g/L glucose (DMEM-HA). For HGF it was DMEM/F-12 (DMEM-12-A, a 1:1 mixture of DMEM and Ham’s F-12 medium). The cell medium for CCL-1 and HEK-293 was Eagle’s Minimum Essential Medium (MEM) (MEM-A). Ten percent heat-inactivated fetal bovine serum (FBS) was added to all media but to the one for the CCL-1 cells, to which 10% heat-inactivated horse serum was added. All media were supplemented with 2 mM L-glutamine and Penicillin/Streptomycin (Pen/Strep, 100×). The cell culture media, sera, and additives were from Capricorn Scientific (Düsseldorf, Germany).
GraphPad Prism software version 9 (GraphPad Software Inc., San Diego, CA, USA) was used to calculate the IC50 values from the MTT assays as in [116], as well as the MTC values, and the ELISA standard curves. The MTC values are, according to ISO 10993-5, the maximum concentration at which at least 70% of the cells are viable (nonlin fit, range).

[10] = system: Enterococcus faecalis; conditions: ref [4],[29]; cited from earlier work

SMILES: CC(C)=CCCC1(C)C(CC=C(C)C)CC2C(=O)C1(C(=O)C(C)C)C(=O)C(CC=C(C)C)=C2O (centres unmarked) [Olympiforin B]
- MIC on bacteria, MRSA [1]: 1 µg/mL (≈ 2.13 µM)
- Relative gene expression, icaD ([2]; 1/8 × MIC): 0.41
- Relative gene expression, icaD ([2]; 1/16 × MIC): 0.82
- Relative gene expression, icaD ([2]; 1/32 × MIC): 0.95
- Relative gene expression, icaA ([3]; 1/8 × MIC): 0.37
- Relative gene expression, icaA ([3]; 1/16 × MIC): 0.53
- Relative gene expression, icaA ([3]; 1/32 × MIC): 0.28
- MBC ([4]; Staphylococcus aureus, MRSA): 68 µg/mL and 121 µM
- MBC/MIC ratio, MRSA ([4]; bactericidal if ≤ 4, bacteriostatic if > 4): 68
- MIC on bacteria, S. aureus [5]: 1 µg/mL (≈ 2.13 µM)
- Median Biofilm Inhibitory Concentration (MBIC50), MRSA [6]: 0.05 (0.03 to 0.07) µg/mL
- Minimum Biofilm Inhibitory Concentration (MBIC), MRSA [6]: 0.5 (1/2 × MIC) µg/mL and 1.07 µM
- Minimum Biofilm Inhibitory Concentration (MBIC), MRSA ([6]; listed as olympiforin B): 0.5 µg/mL
- IC50 ([6]; read-out: Median Biofilm Inhibitory Concentration (MBIC50), MRSA): 120 nM
- MIC on bacteria, S. pyogenes [7]: 4 µg/mL (≈ 8.53 µM)
- IC50 ([8]; Staphylococcus aureus, read-out: Median Biofilm Inhibitory Concentration (MBIC50), S. aureus): 0.07 µg/mL and 150 nM
- Minimum Biofilm Inhibitory Concentration (MBIC), S. aureus ([8]; no visible biofilm): 1 (MIC) µg/mL
- IC50 ([9]; Mus musculus, MTT assay): 5.5 µg/mL (≈ 11.7 µM)
- Maximum tolerated concentration (MTC), CCL-1 ([9]; at least 70% of cells viable, ISO 10993-5): 4.79 µg/mL
- MIC on bacteria, E. faecalis [10]: 4 µg/mL (≈ 8.53 µM)
